The record followed here is ChEMBL document CHEMBL1124941, “Assessment of the in vivo and in vitro opioid activity of bridged hexahydroaporphine and isoquinoline molecules” (J Med Chem, 1990).

The species named for one assay is Mus musculus. Put plainly: Effective dose required for antinociceptive activity in mouse. It is filed as functional.
Assay [1] deals with T1, Opioid receptor (Rattus norvegicus, UniProt P33533+P34975+P33535). It is filed as tissue-based, Brain.
Description: Concentration that produces 50% inhibition of stereospecific [3H]naloxone binding to opioid receptors in rat brain in presence of sodium.
Assay [2] deals with T1, Opioid receptor. It is filed as tissue-based, Brain. This is another data set of the same source.
Description: Concentration that produces 50% inhibition of stereospecific [3H]naloxone binding to opioid receptors in rat brain in absence of sodium.

`COc1ccc2c(c1)C1CCC3CCC14C3CCN(C)C4C2.Cl` (stereo not given) had an ED50 in the assay listed under Mus musculus of 5.42 µg. Take `CN1CC[C@]23c4c5ccc(O)c4O[C@H]2[C@@H](O)C=C[C@H]3[C@H]1C5.CN1CC[C@]23c4c5ccc(O)c4O[C@H]2[C@@H](O)C=C[C@H]3[C@H]1C5.O=S(=O)(O)O`: the ED50 in the assay listed under Mus musculus was determined as 0.0794 µg. For `CN1CCC2C3CCC4c5cc(O)ccc5CC1C42CC3.Cl` (stereo not given), the IC50 was 5.59 µM at Opioid receptor [1] and 0.472 µM against Opioid receptor [2]. Also, in the assay filed under Mus musculus, the ED50 was 4.07 µg.
